The term inhibition denotes how much of the control response was suppressed. One may read the half-life as the time needed for the level to fall by half in the phase considered. Read a high half-life as slow loss. One may read the IC50 as the concentration needed to halve the response being measured.

This note sets out measurements from US20130252930A1 (BIOMARIN PHARMACEUTICAL INC., priority 2010, published 2013).

Series [1] concerns the target T1, CYP17 (human testicular microsome) (Homo sapiens, UniProt P05093).
T1 construct: using microsomal fraction from human testis (Celsis Cat #S00110) as the enzyme source; tissue Celsis S00110; host or cells: human testis microsomal fraction
T1 sequence (P05093 1-508): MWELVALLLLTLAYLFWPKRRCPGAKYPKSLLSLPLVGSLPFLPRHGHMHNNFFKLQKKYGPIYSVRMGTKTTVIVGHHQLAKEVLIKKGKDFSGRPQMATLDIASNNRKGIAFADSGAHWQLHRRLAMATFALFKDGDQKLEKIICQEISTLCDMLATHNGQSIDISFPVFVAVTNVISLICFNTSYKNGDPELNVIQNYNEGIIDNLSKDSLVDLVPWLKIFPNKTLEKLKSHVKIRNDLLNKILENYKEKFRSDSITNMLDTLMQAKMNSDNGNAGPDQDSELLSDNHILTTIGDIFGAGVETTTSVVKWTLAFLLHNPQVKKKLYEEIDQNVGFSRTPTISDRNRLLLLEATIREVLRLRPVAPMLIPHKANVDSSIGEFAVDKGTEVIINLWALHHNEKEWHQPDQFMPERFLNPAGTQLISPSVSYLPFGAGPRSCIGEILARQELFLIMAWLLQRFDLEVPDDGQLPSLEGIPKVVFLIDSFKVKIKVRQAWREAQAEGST
Description: CYP17 enzymatic assay (% inhibition at 10 nM), version 1 (Biological Example 5). It is filed as biochemical. The conditions noted are these: 10 nM compound, DHEA by ELISA, read-out: Biological Example No. 5: CYP17 percent inhibition at 10 nM (version 1).

A short description of another series: in vitro. To be noted: rat, microsomes, pH 7.4.
Series [2] addresses T1, CYP17 (human testicular microsome). Description: CYP17 enzymatic assay (IC50) (Biological Example 4). It is filed as biochemical. The conditions noted are these: human testicular microsome, DHEA by ELISA; read-out: Biological Example No. 4: CYP17 enzymatic assay IC50. A general note: An ELISA detects its analyte on a solid surface through an enzyme-linked reagent.
Series [3] concerns the target T2, Human C17,20-lyase (microsomal fraction from human testis) (Homo sapiens, UniProt P05093).
T2 construct: using microsomal fraction from human testis (Celsis Cat #S00110) as the enzyme source; tissue Celsis S00110; host or cells: human testis microsomal fraction
T2 sequence (P05093 1-508): T1 sequence (P05093 1-508)
Description: CYP17 enzymatic assay (% inhibition at 10 nM), version 2 (Biological Example 6). It is filed as biochemical. The conditions noted are these: method: tested at 100 nM; human testis microsome, radiometric. Here is the method: Human C17,20-lyase enzymatic assays were conducted in 200 μL volume in Eppendorf tubes, using microsomal fraction from human testis (Celsis Cat #S00110) as the enzyme source. Total protein concentration of the microsomal fraction is estimated to be 20 mg/ml. Prior to adding the microsomal fractions, reaction mixtures containing 50 mM NaPO4 buffer (pH 7.4), 1 mM MgCl2, 0.1 mM EDTA, 0.1 mM dithiothreitol, 0.5 mM NADPH, 4 μM 17α-hydroxypregnenolone, 1 μL of [21-^3H]-17α-hydroxypregnenolone (American Radiolabeled Chemicals, ART #1663, Specific activity=50-60 Ci/mmol), and the appropriate testing compounds were incubated for 5 minutes in a 37° C. shaking water bath (150 rpm). Following the 5-minute pre-incubation, 5 μL of human testis microsome was added to each of the reaction mixtures (except for the Negative Controls, which received 5 μL of H2O). After 30-minute incubation at 37° C. in shaking water bath (150 rpm), reactions were stopped by addition of 200 μL of cold chloroform and vigorous shaking for 30 minutes. Tubes were centrifuged at 1,500×g for 15 minutes at 4° C., and the aqueous phase was transferred to fresh Eppendorf tubes. Forty microliters (40 μL) of 8.5% charcoal (Sigma Cat #C6241) suspension was added to each tube, mixed well and incubated at 4° C. for 30 minutes. Tubes were centrifuged at 1,500×g for 15 minutes at 4° C., and 100 μL upper layer from each tube was transferred into each well of a 96-well isoplate (PerkinElmer Cat #6005040). Finally, 100 μL of Optiphase supermix scintillation fluid (PerkinElmer Cat #1200430) was added to each well, mixed by pippeting up and down 3 times. Radioactivity was measured with MicroBeta Trilux Counter using tritium program.
All testing compounds were dissolved and diluted in methanol. Two microliters (2 μL) of the properly diluted test compound was added to each reaction to reach the desired concentration. In Negative control (no enzyme activity) and Activity control (100% enzyme activity), 2 μL of methanol was added. Each data point was tested in duplicate. […]
For compounds of further interest, IC50 value was generated by measuring the inhibition rate at 5 concentrations and using Prism software under “non-linear regression analysis.”

Series [4] can be described thus: Rat liver microsome stability assay (Biological Example 8a). The conditions noted are these: liver microsomes, pH 7.4.
Description: (§1) Each test compound (1.5 μM, 30 μL) was incubated with rat (BD Gentest, Cat No. 452501) or human (BD Gentest, Cat No. 452161) liver microsomes (0.75 mg/mL, 0.1 M potassium phosphate buffer, 1.0 mM EDTA, pH 7.4) in 96 well plates. The reaction was started with addition of excess NADPH (5 mg/mL, 15 μL in 0.1 M potassium phosphate buffer, 1.0 mM EDTA, pH 7.4), the total volume is 45 μL (compound final concentration was 1 μM). The incubations were terminated at time zero and at 5, 15, 30, and 60 minutes by addition of 135 μL/excess ACN containing internal standard (1S). After quenching, the reaction mixtures was centrifuged (Eppendorf Centrifuge 5810R) at 3220×g for 10 min (4° C.). 50 μL of the supernatant was transferred from each well into a 96-well sample plate containing 50 μL of ultra-pure water (Millipore) for LC-MS/MS analysis. The half-life T1/2=0.693/K (K is the rate constant from a plot of log [concentration] vs. incubation time) was calculated.
A short description of series [5]: Human liver microsome stability assay (Biological Example 8b). To be noted: liver microsomes, pH 7.4.
Description: The reaction was started with addition of excess NADPH (5 mg/mL, 15 μL in 0.1 M potassium phosphate buffer, 1.0 mM EDTA, pH 7.4), the total volume is 45 μL (compound final concentration was 1 μM). […] 50 μL of the supernatant was transferred from each well into a 96-well sample plate containing 50 μL of ultra-pure water (Millipore) for LC-MS/MS analysis.

Description for in vitro: as §1

Regarding `C[C@]12CCCCC1=CC[C@@H]1[C@@H]2CC[C@]2(C)C(c3cccnc3)=CC[C@@H]12` [Compound 67, 3-((10R,13S)-10,13-dimethyl-2,3,4,7,8,9,10,11,12,13,14,15-dodecahydro-1H-cyclopenta[a]phenanthren-17-yl)pyridine], the inhibition at 0.01 µM in series [1] fell in the range of 50 to 80%. The half-life at 1 μM in “in vitro” fell in the range of 1 to 10 min.

`C[C@]12CCC(=O)OC[C@@H]1CC[C@@H]1[C@@H]2CC[C@]2(C)C(c3cccnc3)=CC[C@@H]12` [Compound 113, (1S,12S,16S,2R,8R,11R)-2,16-dimethyl-15-(3-pyridyl)-6-oxatetracyclo[9.7.0.0^2,8.0^12,16]octadec-14-en-5-one]: the IC50 in series [2] was less than 11 nM. Also, the “Biological Example No. 6: CYP17 percent inhibition (version 2)” value in series [3] was “F (F means the compound had a percent inhibition of greater than or equal to 38%)”. Besides, the half-life at 1 μM in series [4] was in the range of 10 to 60 min; in series [5], 1 to 50 min.
